# Measurements published in US20240293413A1, “COMPOUND AND METHOD FOR TREATING CHEMOTHERAPY-RELATED GASTROINTESTINAL SIDE EFFECTS” (ONQUALITY PHARMACEUTICALS CHINA LTD., priority 2021, published 2024).
# Legend:
# Type in all cases: in vivo
# [1] = system: constipation caused by a chemotherapeutic agent in Balb/c mice; assay: Examples 406-443 (Table 8): various administration modes of the CDK inhibitor, relief of constipation caused by a chemotherapeutic agent;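 as to Relative remission rate of oral administration: percent of treated mice relieved versus chemotherapy group by feces reduction rate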;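 as to Relative remission rate of other administration mode: percent of treated mice relieved versus chemotherapy group by feces reduction rate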
# Excerpt: Balb/c mice were fed for 1 week, and then divided into groups. The experiment was divided into a control group, a chemotherapeutic agent group, CDK inhibitor groups (including an oral administration group of a CDK inhibitor, an intravenous injection group of a CDK inhibitor, an intraperitoneal injection group of a CDK inhibitor, an intramuscular injection group of a CDK inhibitor, a local administration group of a CDK inhibitor), each of which comprised 10 mice, to perform the administration experiment, for which the administration dosage, mode, time and frequency were shown in Table 8. The control group: being administered with the same solvent as that used in the CDK inhibitor group (the time and mode were shown in Table 8), and then being injected/intragastrically administered with the same solvent as that used in the chemotherapeutic agent group (the administration mode was shown in Table 8): the chemotherapeutic agent group: being administered with the same solvent as that used in the CDK inhibitor group (the time and mode were shown in Table 8), and then being injected/intragastrically administered with the chemotherapeutic agent (the type, administration mode and dosage were shown in Table 8): the oral administration group of the CDK inhibitor: being intragastrically administered with the CDK inhibitor (the time was shown in Table 8), and then being administered with the chemotherapeutic agent (the mode and dosage were shown in Table 8): the intravenous injection group of the CDK inhibitor: being injected with the CDK inhibitor through tail vein (the time was shown in Table 8), and then being administered with the chemotherapeutic agent (the mode and dosage were shown in Table 8): the intraperitoneal injection group of the CDK inhibitor: being intraperitoneally injected with the CDK inhibitor (the time was shown in Table 8), and then being administered with the chemotherapeutic agent (the mode and dosage were shown in Table 8): the intramuscular injection group of the CDK inhibitor: being intramuscularly injected with the CDK inhibitor (the time was shown in Table 8), and then being administered with the chemotherapeutic agent (the mode and dosage were shown in Table 8); and the local administration group of the CDK inhibitor: the hair on the abdomen of mice was shaved (about 2 cm*2 cm), being applied with the CDK inhibitor (the time was shown in Table 8), and then being administered with the chemotherapeutic agent (the mode and dosage were shown in Table 8).
# Feces reduction rate (%)=(the control group−the chemotherapeutic agent group or the CDK inhibitor group)/the control group*100%
# The feces amount of mice within 3 hours was observed and recorded every day.
# [2] = system: diarrhea caused by the continuous administration of a chemotherapeutic agent in Balb/c mice; assay: Examples 444-469 (Table 9): oral CDK inhibitor, diarrhea caused by continuous administration of a chemotherapeutic agent
# Excerpt: Balb/c mice were fed for 1 week, and then divided into groups. The experiment was divided into a control group, a chemotherapeutic agent group, and a CDK inhibitor group, each of which comprised 10 mice, to perform the administration experiment, for which the administration dosage, mode, time and frequency were shown in Table 9. The control group: being intragastrically administered with the same solvent as that used in the CDK inhibitor group (the time was shown in Table 9), and then being injected/intragastrically administered with the same solvent as that used in the chemotherapeutic agent group (the administration mode was shown in Table 9): the chemotherapeutic agent group: being intragastrically administered with the same solvent as that used in the CDK inhibitor group (the time was shown in Table 9), and then being injected/intragastrically administered with the chemotherapeutic agent (the type, administration mode, dosage and duration time were shown in Table 9): the CDK inhibitor group: being intragastrically administered with the CDK inhibitor (the time was shown in Table 9), and then being administered with the chemotherapeutic agent (the type, administration mode, dosage and duration time were shown in Table 9).
# The scoring of diarrhea can refer to the method of Akinobu Kurita (Cancer Chemother Pharmacol 2000: 46:211-20.), Grade 0: normal feces: Grade 1: mild diarrhea, the stools is slightly wet and soft: Grade 2: moderate diarrhea, loose stools and mild perianal contamination: Grade 3: severe diarrhea, watery stools and accompanied by severe perianal staining (see FIG. 1). It is regarded as effective remission when the diarrhea grading of mice in the CDK inhibitor group is reduced compared with the average diarrhea grading of mice in the chemotherapeutic agent group.
# The diarrhea grading of mice was observed and recorded every day. At the end of the experiment, the number of mice in the CDK inhibitor group whose diarrhea grading was lower than that of mice in the chemotherapeutic agent group was recorded. Table 9 lists various animal experiment combinations of chemotherapeutic agents and CDK inhibitors, as well as the corresponding experimental results. (Relative remission rate %=the number of mice in the CDK inhibitor group whose diarrhea has been effectively relieved/the total number of mice in the CDK inhibitor group*100%. The establishment rate of diarrhea model in the chemotherapeutic agent group was 50%-80%, that is, about 5-8 of 10 mice developed diarrhea during the experiment, and there were cases of individual mice death or not developing diarrhea.)
# [3] = system: diarrhea caused by a chemotherapeutic agent in Balb/c mice; assay: Examples 230-271 (Table 4): oral CDK inhibitor, relief of diarrhea caused by a chemotherapeutic agent
# Summary of the method: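 Balb/c mice, 10 per group (vehicle, chemotherapeutic agent, CDK inhibitor plus chemotherapeutic); CDK inhibitor dosed intragastrically before the chemotherapeutic agent by injection or gavage. Diarrhea graded daily.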
smiles,measurement,setting,value
CN(C)C(=O)c1cc2cnc(Nc3ccc(N4CCNCC4)cn3)nc2n1C1CCCC1 [Ribociclib],Relative remission rate of other administration mode,"[1]; Example 424, Carboplatin intraperitoneal injection 120 mg/kg single, CDK inhibitor intraperitoneal injection 200 mg/kg single, 0.5 h before, cycle 10 days",10%
same,Relative remission rate of oral administration,"[1]; Example 424, Carboplatin intraperitoneal injection 120 mg/kg single, CDK inhibitor oral 200 mg/kg single, 0.5 h before, cycle 10 days",20%
same,Relative remission rate of other administration mode,"[1]; Example 425, Carboplatin intraperitoneal injection 120 mg/kg single, CDK inhibitor intraperitoneal injection 200 mg/kg single, 4 h before, cycle 10 days",10%
same,Relative remission rate of oral administration,"[1]; Example 425, Carboplatin intraperitoneal injection 120 mg/kg single, CDK inhibitor oral 200 mg/kg single, 4 h before, cycle 10 days",30%
same,Relative remission rate of other administration mode,"[1]; Example 426, Carboplatin intraperitoneal injection 120 mg/kg single, CDK inhibitor intraperitoneal injection 200 mg/kg single, 8 h before, cycle 10 days",20%
same,Relative remission rate of oral administration,"[1]; Example 426, Carboplatin intraperitoneal injection 120 mg/kg single, CDK inhibitor oral 200 mg/kg single, 8 h before, cycle 10 days",50%
same,Relative remission rate of other administration mode,"[1]; Example 427, Carboplatin intraperitoneal injection 120 mg/kg single, CDK inhibitor intraperitoneal injection 200 mg/kg single, 12 h before, cycle 10 days",20%
same,Relative remission rate of oral administration,"[1]; Example 427, Carboplatin intraperitoneal injection 120 mg/kg single, CDK inhibitor oral 200 mg/kg single, 12 h before, cycle 10 days",50%
same,Relative remission rate of other administration mode,"[1]; Example 428, Carboplatin intraperitoneal injection 120 mg/kg single, CDK inhibitor intraperitoneal injection 200 mg/kg single, 24 h before, cycle 10 days",10%
same,Relative remission rate of oral administration,"[1]; Example 428, Carboplatin intraperitoneal injection 120 mg/kg single, CDK inhibitor oral 200 mg/kg single, 24 h before, cycle 10 days",40%
same,Relative remission rate of other administration mode,"[1]; Example 435, Gemcitabine oral administration 300 mg/kg single, CDK inhibitor local administration 100 mg/kg single, 24 h before, cycle 8 days",20%
same,Relative remission rate of oral administration,"[1]; Example 435, Gemcitabine oral administration 300 mg/kg single, CDK inhibitor oral 100 mg/kg single, 24 h before, cycle 8 days",50%
same,"improvement of constipation by oral administration, intraperitoneal injection, intramuscular injection, local administration","[1]; constipation caused by doxorubicin, etoposide, etoposide plus cisplatin, carboplatin, gemcitabine, gemcitabine plus carboplatin, under certain conditions, oral most significant",can significantly improve constipation
same,Relative remission rate,"[2]; Example 456, Fluorouracil (5-Fu) intravenous injection 70 mg/kg once a day, for 3 days, CDK inhibitor oral 200 mg/kg once a day, for 3 days, 4 h before, cycle 8 days",80%
same,relieving effect on diarrhea,[2]; continuous administration of fluorouracil and capecitabine for 7 days or above,not significant
same,relieving effect on diarrhea,[2]; continuous administration of fluorouracil for less than 7 days,significant relieving effects
same,Relative remission rate,"[3]; Example 243, Methotrexate (MTX) intravenous injection 300 mg/kg single, CDK inhibitor oral 125 mg/kg single, 0.5 h before, cycle 7 days",80%
same,Relative remission rate,"[3]; Example 244, Methotrexate (MTX) intravenous injection 300 mg/kg single, CDK inhibitor oral 125 mg/kg single, 4 h before, cycle 7 days",60%
same,Relative remission rate,"[3]; Example 245, Methotrexate (MTX) intravenous injection 300 mg/kg single, CDK inhibitor oral 125 mg/kg single, 8 h before, cycle 7 days",80%
same,Relative remission rate,"[3]; Example 246, Methotrexate (MTX) intravenous injection 300 mg/kg single, CDK inhibitor oral 125 mg/kg single, 12 h before, cycle 7 days",40%
same,Relative remission rate,"[3]; Example 247, Methotrexate (MTX) intravenous injection 300 mg/kg single, CDK inhibitor oral 125 mg/kg single, 24 h before, cycle 7 days",60%
same,Relative remission rate,"[3]; Example 248, Methotrexate (MTX) intravenous injection 300 mg/kg single, CDK inhibitor oral 125 mg/kg single, 48 h before, cycle 7 days",0%
same,Relative remission rate,"[3]; Example 251, Methotrexate (MTX) intraperitoneal injection 260 mg/kg single, CDK inhibitor oral 200 mg/kg single, 12 h before, cycle 7 days",50%
same,Relative remission rate,"[3]; Example 252, Methotrexate (MTX) intraperitoneal injection 260 mg/kg single, CDK inhibitor oral 200 mg/kg single, 48 h before, cycle 7 days",0%
same,Relative remission rate,"[3]; Example 269, Vinorelbine (NVB) oral administration 15 mg/kg single, CDK inhibitor oral 100 mg/kg single, 24 h before, cycle 11 days",50%
CCN1CCN(Cc2ccc(Nc3ncc(F)c(-c4cc(F)c5nc(C)n(C(C)C)c5c4)n3)nc2)CC1 [Abemaciclib],Relative remission rate of other administration mode,"[1]; Example 429, Carboplatin intravenous injection 120 mg/kg single, CDK inhibitor intramuscular injection 150 mg/kg single, 8 h before, cycle 10 days",20%
same,Relative remission rate of oral administration,"[1]; Example 429, Carboplatin intravenous injection 120 mg/kg single, CDK inhibitor oral 150 mg/kg single, 8 h before, cycle 10 days",60%
same,Relative remission rate of other administration mode,"[1]; Example 430, Gemcitabine intraperitoneal injection 120 mg/kg single, CDK inhibitor intraperitoneal injection 150 mg/kg single, 0.5 h before, cycle 8 days",10%
same,Relative remission rate of oral administration,"[1]; Example 430, Gemcitabine intraperitoneal injection 120 mg/kg single, CDK inhibitor oral 150 mg/kg single, 0.5 h before, cycle 8 days",40%
same,Relative remission rate of other administration mode,"[1]; Example 431, Gemcitabine intraperitoneal injection 120 mg/kg single, CDK inhibitor intraperitoneal injection 150 mg/kg single, 4 h before, cycle 8 days",10%
same,Relative remission rate of oral administration,"[1]; Example 431, Gemcitabine intraperitoneal injection 120 mg/kg single, CDK inhibitor oral 150 mg/kg single, 4 h before, cycle 8 days",40%
same,Relative remission rate of other administration mode,"[1]; Example 432, Gemcitabine intraperitoneal injection 120 mg/kg single, CDK inhibitor intraperitoneal injection 150 mg/kg single, 8 h before, cycle 8 days",10%
same,Relative remission rate of oral administration,"[1]; Example 432, Gemcitabine intraperitoneal injection 120 mg/kg single, CDK inhibitor oral 150 mg/kg single, 8 h before, cycle 8 days",40%
same,Relative remission rate of other administration mode,"[1]; Example 433, Gemcitabine intraperitoneal injection 120 mg/kg single, CDK inhibitor intraperitoneal injection 150 mg/kg single, 12 h before, cycle 8 days",20%
same,Relative remission rate of oral administration,"[1]; Example 433, Gemcitabine intraperitoneal injection 120 mg/kg single, CDK inhibitor oral 150 mg/kg single, 12 h before, cycle 8 days",60%
same,Relative remission rate of other administration mode,"[1]; Example 434, Gemcitabine intraperitoneal injection 120 mg/kg single, CDK inhibitor intraperitoneal injection 150 mg/kg single, 24 h before, cycle 8 days",20%
same,Relative remission rate of oral administration,"[1]; Example 434, Gemcitabine intraperitoneal injection 120 mg/kg single, CDK inhibitor oral 150 mg/kg single, 24 h before, cycle 8 days",60%
same,Relative remission rate,"[2]; Example 457, Fluorouracil (5-Fu) oral administration 50 mg/kg once a day, for 14 days, CDK inhibitor oral 150 mg/kg once a day, for 14 days, 8 h before, cycle 14 days",0%
same,Relative remission rate,"[3]; Example 253, Methotrexate (MTX) intramuscular injection 300 mg/kg single, CDK inhibitor oral 150 mg/kg single, 8 h before, cycle 7 days",70%
same,Relative remission rate,"[3]; Example 263, Vinorelbine (NVB) intravenous injection 10 mg/kg single, CDK inhibitor oral 150 mg/kg single, 0.5 h before, cycle 7 days",60%
same,Relative remission rate,"[3]; Example 264, Vinorelbine (NVB) intravenous injection 10 mg/kg single, CDK inhibitor oral 150 mg/kg single, 4 h before, cycle 7 days",80%
same,Relative remission rate,"[3]; Example 265, Vinorelbine (NVB) intravenous injection 10 mg/kg single, CDK inhibitor oral 150 mg/kg single, 8 h before, cycle 7 days",80%
same,Relative remission rate,"[3]; Example 266, Vinorelbine (NVB) intravenous injection 10 mg/kg single, CDK inhibitor oral 150 mg/kg single, 12 h before, cycle 7 days",60%
same,Relative remission rate,"[3]; Example 267, Vinorelbine (NVB) intravenous injection 10 mg/kg single, CDK inhibitor oral 150 mg/kg single, 24 h before, cycle 7 days",50%
same,Relative remission rate,"[3]; Example 268, Vinorelbine (NVB) intravenous injection 10 mg/kg single, CDK inhibitor oral 150 mg/kg single, 48 h before, cycle 7 days",0%
